Patent US8541476B2, “Compounds for treatment of malignant tumors” (The Trustees of the University of Pennsylvania, priority 2007, dated 2013)

Columns and labels:
[1] = system: dsDNA break repair in U251 cells; assay: DSB measurement by PFGE and number average length analysis; format: cell-based, human; details: U251, 30 μM 4 hours, 4 Gy
Method: Cells were treated with 30 μM NS-123 or DMSO alone. Four hours later, the cells were either sham-irradiated, or irradiated with 4 Gy of ^137Cs γ-rays (Radiation Facility, Brody School of Medicine, ECU) at the dose rate of 0.57 Gy/min and placed immediately at 37° C. in fresh medium without NS-123 and harvested at different repair times up to 24 hours. No significant changes in the percentage of dead cells were detected by trypan blue exclusion as a result of irradiation. […] A DNA dispersion curve relating DNA length to electrophoretic mobility, based on all length standards was determined from an analytical mobility function as previously described using number average length analysis (NALA) (Seo, et al., 2005, Clin. Cancer Res. 11:7499-507).
As a first step in understanding the mechanism of the radiosensitizing activity of NS-123, the processing of DSBs in U251 cells treated with 30 μM NS-123 or DMSO (control) was measured using an adaptation of PFGE. […] Therefore, a 4 hour, 30 μM NS-123 treatment for experiments analyzing the effects of NS-123 on DSB repair and immunoblotting was used (see below) which require a significant quantity of cells. […]

U251 glioma cells = assay: Clonogenic survival assay, U251 cells; format: cell-based, human
Method: Clonogenic survival assays were performed as described by Koumenis, et al., 2002, (Mol. Cell Biol. 22:7405-16), which reference is incorporated herein in its entirety. U251, HT-29, or A549 cells were plated at different densities in triplicate, treated with NS-123 or DMSO (alone) and irradiated 4, 8, or 12 hours later with a range of doses using ^137Cs γ-rays at a dose rate of ˜4 Gy/minute (min). One hour after irradiation, the medium was replaced with fresh medium without NS-123 or DMSO. The cells were fixed 7-14 days after IR and stained with crystal violet. Colonies greater than 50 cells were then counted and normalized against the non-irradiated controls for each treatment. […] NHA cells were plated in 24-well plates in quadruplicate at equal density, treated with equal volumes of NS-123 or DMSO (alone) and irradiated as described above. One hour after irradiation, the medium was replaced with fresh ABM. Five days later, the MTS assay was used to evaluate cell survival as above.
The effects of μM doses of NS-123 on clonogenic survival of U251 cells were first determined without ionizing radiation (IR). […] Treatment with a 5 μM dose for 12 hours caused a modest (30%), but statistically significant decrease in survival.
Next, the dose-dependent radiosensitizing effects of NS-123 (2.5 μM and 5.0 μM concentration) in U251 cells was determined (FIG. 4A). […] Therefore, NS-123 can act as a true radiosensitizer at low μM concentrations. Corresponding Dose Enhancement Ratios (DER) at 0.1 survival were: 1.3 (2.5 μM NS-123) and 2.0 (5.0 μM NS-123). The time-dependent radiosensitizing effects of 5.0 μM NS-123 in U251 cells was then investigated. […] Corresponding DER at 0.1 survival were: 1.2 (4 hour preincubation with NS-123), 1.4 (8 hour) and 1.9 (12 hour).

CCC(=O)c1ccc(Br)c([N+](=O)[O-])c1 [NS-123, 4′-bromo-3′-nitropropiophenone]
initial number of dsDNA breaks [1]: 88.5±5.3 DSBs/Gbp | residual DSB damage compared to initial levels ([1]; 24 hours repair): ~25% | clonogenic survival without IR (U251 glioma cells; U251, 2.5 μM for 12 hours, no IR): did not cause any significant decrease in survival | Dose Enhancement Ratio (DER) at 0.1 survival (U251 glioma cells; U251, 2.5 μM, 12 hours before IR): 1.3 | radiosensitization (U251 glioma cells; U251, 2.5 μM, IR dose of 2 Gy): Radiosensitization was evident | decrease in clonogenic survival without IR (U251 glioma cells; U251, 5 μM for 12 hours, no IR): 30% | Dose Enhancement Ratio (DER) at 0.1 survival (U251 glioma cells; U251, 5.0 μM, 4 hour preincubation): 1.2 | Dose Enhancement Ratio (DER) at 0.1 survival (U251 glioma cells; U251, 5.0 μM, 8 hour preincubation): 1.4 | Dose Enhancement Ratio (DER) at 0.1 survival (U251 glioma cells; U251, 5.0 μM, 12 hour preincubation (time-response, FIG. 4B)): 1.9 | Dose Enhancement Ratio (DER) at 0.1 survival (U251 glioma cells; U251, 5.0 μM, 12 hours before IR (dose-response, FIG. 4A)): 2.0 | loss of viability without IR, time-response (U251 glioma cells; U251, 5 μM, various times, no IR): did not induce any significant loss of viability unless it was administered for 12 hours | radiosensitization, high-density plated cells (U251 glioma cells; U251 plated at high density, 30 μM 4 hour versus 5 μM 12 hour on low-density cells (data not shown)): comparable radiosensitization
